# From patent US20260262643A1, “HERBICIDAL BENZOXAZINES” (FMC CORPORATION, priority 2022, published 2026)
# Experiments:
# corn = assay: Test A postemergence; format: in vivo, Zea mays; settings: Zea mays, post-emergence, 240 h; for Corn plant response rating (crop injury, 0 = no effect, 100 = complete kill) at 125 g/ha: 125 g ai/ha, postemergence, 10 days, visual injury, 0 to 100 scale (0 no effect, 100 complete control); for Corn plant response rating (crop injury, 0 = no effect, 100 = complete kill) at 500 g/ha: 500 g ai/ha, Postemergence, 0 to 100 scale
# Procedure, shortened: (§1)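 Weeds and crops in loam–sand blend were sprayed preemergence onto soil or postemergence at 2–10 cm (one- to two-leaf stage). Test chemicals were in a non-phytotoxic solvent with surfactant. After 10 days in the greenhouse, injury was rated visually against untreated controls on a 0 (no effect) to 100 (complete control) scale.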
# wheat = assay: Test A postemergence; format: in vivo, Triticum aestivum; settings: Triticum aestivum, post-emergence, 240 h, read-out: Plant response rating, Wheat; for plant injury at 125 g/ha: 125 g ai/ha, postemergence, 10 days, visual injury, 0 to 100 scale (0 no effect, 100 complete control); for plant injury at 500 g/ha: 500 g ai/ha, Postemergence, 0 to 100 scale
# Procedure, shortened: as §1
# soybean = assay: Test A preemergence; format: in vivo, Glycine max; settings: Glycine max, pre-emergence, 240 h, read-out: Plant response rating, Soybean; for plant injury at 125 g/ha: 125 g ai/ha, visual injury after 10 days, 0 to 100 scale, 0 is no effect, 100 is complete control; for plant injury at 500 g/ha: 500 g ai/ha, 0 to 100 scale (0 no effect, 100 complete control), 10 days
# Procedure, shortened: as §1
# ryegrass, Italian = assay: Test A preemergence; format: in vivo, Lolium multiflorum; settings: Lolium multiflorum, pre-emergence, 240 h, read-out: Plant response rating, Ryegrass, Italian; for pest or weed control at 125 g/ha: 125 g ai/ha, visual injury after 10 days, 0 to 100 scale, 0 is no effect, 100 is complete control; for pest or weed control at 500 g/ha: 500 g ai/ha, 0 to 100 scale (0 no effect, 100 complete control), 10 days
# Procedure, shortened: as §1
# ducksalad = assay: Test B flooded paddy test; format: in vivo, Heteranthera limosa; settings: Heteranthera limosa, 312 h, 250 g ai/ha, Flood, 13 days, 0 to 100 scale (0 no effect, 100 complete control); read-out: Plant response rating, Ducksalad
# Procedure, shortened: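 Application into standing water (3 cm above soil) at the two-leaf stage; flood depth held constant. Evaluation: day 13, visual comparison with controls, 0 = no injury, 100 = complete control.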
# blackgrass [1] = assay: Test A preemergence; format: in vivo, Alopecurus myosuroides; settings: Alopecurus myosuroides, pre-emergence, 240 h, read-out: Plant response rating, Blackgrass; for pest or weed control at 125 g/ha: 125 g ai/ha, visual injury after 10 days, 0 to 100 scale, 0 is no effect, 100 is complete control; for pest or weed control at 500 g/ha: 500 g ai/ha, 0 to 100 scale (0 no effect, 100 complete control), 10 days
# Procedure, shortened: as §1
# oat, wild = assay: Test A postemergence; format: in vivo, Avena fatua; settings: Avena fatua, post-emergence, 240 h, read-out: Plant response rating, Oat, Wild; for pest or weed control at 125 g/ha: 125 g ai/ha, postemergence, 10 days, visual injury, 0 to 100 scale (0 no effect, 100 complete control); for pest or weed control at 500 g/ha: 500 g ai/ha, Postemergence, 0 to 100 scale
# Procedure, shortened: as §1
# ragweed [2] = assay: Test A preemergence; format: in vivo, Ambrosia artemisiifolia; settings: Ambrosia artemisiifolia, pre-emergence, 240 h, read-out: Plant response rating, Ragweed; for pest or weed control at 125 g/ha: 125 g ai/ha, visual injury after 10 days, 0 to 100 scale, 0 is no effect, 100 is complete control; for pest or weed control at 500 g/ha: 500 g ai/ha, 0 to 100 scale (0 no effect, 100 complete control), 10 days
# Procedure, shortened: as §1
# foxtail, giant = assay: Test A postemergence; format: in vivo, Setaria faberi; settings: Setaria faberi, post-emergence, 240 h, read-out: Plant response rating, Foxtail, Giant; for pest or weed control at 125 g/ha: 125 g ai/ha, postemergence, 10 days, visual injury, 0 to 100 scale (0 no effect, 100 complete control); for pest or weed control at 500 g/ha: 500 g ai/ha, Postemergence, 0 to 100 scale
# Procedure, shortened: as §1
# pigweed, palmer [3] = assay: Test A preemergence; format: in vivo, Amaranthus palmeri; settings: Amaranthus palmeri, pre-emergence, 240 h, read-out: Plant response rating, Pigweed, Palmer; for pest or weed control at 125 g/ha: 125 g ai/ha, visual injury after 10 days, 0 to 100 scale, 0 is no effect, 100 is complete control; for pest or weed control at 500 g/ha: 500 g ai/ha, 0 to 100 scale (0 no effect, 100 complete control), 10 days
# Procedure, shortened: as §1
# ragweed [4] = assay: Test A postemergence; format: in vivo, Ambrosia artemisiifolia; settings: Ambrosia artemisiifolia, post-emergence, 240 h, read-out: Plant response rating, Ragweed; for pest or weed control at 125 g/ha: 125 g ai/ha, postemergence, 10 days, visual injury, 0 to 100 scale (0 no effect, 100 complete control); for pest or weed control at 500 g/ha: 500 g ai/ha, Postemergence, 0 to 100 scale
# Procedure, shortened: as §1
# goosegrass = assay: Test A postemergence; format: in vivo, Eleusine indica; settings: Eleusine indica, post-emergence, 240 h, read-out: Plant response rating, Goosegrass; for pest or weed control at 125 g/ha: 125 g ai/ha, postemergence, 10 days, visual injury, 0 to 100 scale (0 no effect, 100 complete control); for pest or weed control at 500 g/ha: 500 g ai/ha, Postemergence, 0 to 100 scale
# Procedure, shortened: as §1
# pigweed, palmer [5] = assay: Test A postemergence; format: in vivo, Amaranthus palmeri; settings: Amaranthus palmeri, post-emergence, 240 h, read-out: Plant response rating, Pigweed, Palmer; for pest or weed control at 125 g/ha: 125 g ai/ha, postemergence, 10 days, visual injury, 0 to 100 scale (0 no effect, 100 complete control); for pest or weed control at 500 g/ha: 500 g ai/ha, Postemergence, 0 to 100 scale
# Procedure, shortened: as §1
# blackgrass [6] = assay: Test A postemergence; format: in vivo, Alopecurus myosuroides; settings: Alopecurus myosuroides, post-emergence, 240 h, read-out: Plant response rating, Blackgrass; for pest or weed control at 125 g/ha: 125 g ai/ha, postemergence, 10 days, visual injury, 0 to 100 scale (0 no effect, 100 complete control); for pest or weed control at 500 g/ha: 500 g ai/ha, Postemergence, 0 to 100 scale
# Procedure, shortened: as §1
SMILES,"Corn plant response rating (crop injury, 0 = no effect, 100 = complete kill) at 125 g/ha (corn) [%]","Corn plant response rating (crop injury, 0 = no effect, 100 = complete kill) at 500 g/ha (corn) [%]",plant injury at 125 g/ha (wheat) [%],plant injury at 500 g/ha (wheat) [%],plant injury at 125 g/ha (soybean) [%],plant injury at 500 g/ha (soybean) [%],"pest or weed control at 125 g/ha (ryegrass, Italian) [%]","pest or weed control at 500 g/ha (ryegrass, Italian) [%]",pest or weed control at 250 g/ha (ducksalad) [%],pest or weed control at 125 g/ha (blackgrass [1]) [%],pest or weed control at 500 g/ha (blackgrass [1]) [%],"pest or weed control at 125 g/ha (oat, wild) [%]","pest or weed control at 500 g/ha (oat, wild) [%]",pest or weed control at 125 g/ha (ragweed [2]) [%],pest or weed control at 500 g/ha (ragweed [2]) [%],"pest or weed control at 125 g/ha (foxtail, giant) [%]","pest or weed control at 500 g/ha (foxtail, giant) [%]","pest or weed control at 125 g/ha (pigweed, palmer [3]) [%]","pest or weed control at 500 g/ha (pigweed, palmer [3]) [%]",pest or weed control at 125 g/ha (ragweed [4]) [%],other results
"COc1ccc(-n2cncn2)cc1C(=O)N1C[C@H](C)Oc2c(C)cccc21 [Compound 63, [(2S)-2,3-Dihydro-2,8-dimethyl-4H-1,4-benzoxazin-4-yl][2-methoxy-5-(1H-1,2,4-triazol-1-yl)phenyl]methanone]",80,80,70,90,100,100,90,100,90,80,90,70,80,0,40,90,90,40,90,40,"pest or weed control at 500 g/ha (ragweed [4]): 40%; pest or weed control at 125 g/ha (goosegrass): 70%; pest or weed control at 500 g/ha (goosegrass): 80%; pest or weed control at 125 g/ha (pigweed, palmer [5]): 30%; pest or weed control at 500 g/ha (pigweed, palmer [5]): 40%; pest or weed control at 125 g/ha (blackgrass [6]): 70%; pest or weed control at 500 g/ha (blackgrass [6]): 90%"
"Cc1cccc2c1O[C@@H](C)CN2C(=O)c1cccc(-n2cnc(Br)n2)c1 [Compound 61, [3-(3-Bromo-1H-1,2,4-triazol-1-yl)phenyl][(2S)-2,3-dihydro-2,8-dimethyl-4H-1,4-benzoxazin-4-yl]methanone]",10,10,10,20,0,30,90,100,15,50,70,10,20,0,40,60,80,60,90,30,"pest or weed control at 500 g/ha (ragweed [4]): 40%; pest or weed control at 125 g/ha (goosegrass): 10%; pest or weed control at 500 g/ha (goosegrass): 50%; pest or weed control at 125 g/ha (pigweed, palmer [5]): 40%; pest or weed control at 500 g/ha (pigweed, palmer [5]): 50%; pest or weed control at 125 g/ha (blackgrass [6]): 20%; pest or weed control at 500 g/ha (blackgrass [6]): 40%"
